Reference: patent publication US20210204574A1, “Consumable Product Comprising Malted Wheat” (Lantmannen Functional Foods AB, priority 2018, published 2021)

Assays:
[1] = system: cholera toxin-induced secretion; parameters: species or system Sprague-Dawley rats; settings: rat, in vivo
[2] = system: compleasomes (proteasome/complement complexes); test: Compleasome assay in blood (sandwich ELISA, mab against AF / polyclonal against C3c); assay type: in vivo, Sprague-Dawley rats; settings: for proteasome/C3 complex (AF activity in blood) compared to controls: FIG. 10a, 5 μM phenol or leachate in drinking water for 14 days, reversed titre; for compleasome concentration (AF activity in blood): FIG. 10b, in drinking water for 14 days, 5 animals/group
Description: In another set of experiments, the rats were given water extracts of the cereals or purified phenols in their drinking water. The malted Kosack wheat was milled to flour, of which 200 g was put in a glass flask and 800 ml boiling water was successively mixed with the flour. After 3 hours of slow cooling to room temperature, the soak-water was filtered through a nylon filter and centrifuged for 30 min at 12000×g. The supernatant was frozen in 50 ml portions and diluted 1:6 with water each day during the experiment. Freeze-dried purified fractions of wheat extracts were dissolved in the drinking water. […] The drinks or the water control were given in excess over 1-14 days before testing of antisecretory activity.
Rats were given leachate from malted wheat or pure phenols in the drinking water as described above. After 14 days, blood samples were drawn as described elsewhere (Bjorck et al., 2000 and Lönnroth et al., 2016) and the antisecretory activity in blood was estimated by performing a sandwich enzyme-linked immunosorbent assay (ELISA) for detection of compleasomes (proteasome/complement complexes) in blood plasma as described elsewhere (Lonnroth et al., 2016). A monoclonal antibody (mab) against antisecretory factor was used as catching antibody and a polyclonal antibody against complement factor 3c as detecting antibody. The titre was determined after development by a secondary antibody coupled to alkaline phosphatas.

Compound	AF units [1]	Inhibition, % [1]	antisecretory activity of pure phenols (in words) [1]	proteasome/C3 complex (AF activity in blood) compared to controls [2]	compleasome concentration (AF activity in blood) [2]
OCc1ccccc1O[C@@H]1O[C@H](CO)[C@@H](O)[C@H](O)[C@H]1O [Salicin]	0.3 ± 0.1 AF units	17%	much smaller effect	–	–
Oc1cccc(O)c1 [Resorcinol]	0.6 ± 0.1 AF units	30%	much smaller effect	–	–
COc1ccccc1OC [Veratrole]	–	21%	induced secretion	–	–
COc1ccccc1O [Guaiacol, 2-methoxyphenol]	0.9 ± 0.3 1.0 ± 0.2 1.5 ± 0.2 AF units	46 51 76%	induced antisecretory activity as early as day 1	significantly higher	–
COc1cc(C(=O)O)ccc1O [Vanillic acid]	1.1 ± 0.1 AF units	57%	significant antisecretory activity	–	–
catechin	–	–	–	–	significant increase
Oc1cc2c(cc1O)CN(C(=S)NCCc1ccc(Cl)cc1)CCC2 [Capsazepine]	0.8 ± 0.1 1.3 ± 0.1 AF units	38 66%	as active as guaiacol	–	–
COc1ccc([C@@H]2OC[C@@H]3[C@H]2CO[C@H]3c2ccc(OC)c(OC)c2)cc1OC [Eudesmine]	–	16%	increased secretion	–	–
O=c1c(O)c(-c2ccc(O)c(O)c2)oc2cc(O)cc(O)c12 [Quercetin]	0.8 ± 0.1 AF units	42%	significant antisecretory activity	–	–
COc1cc(/C=C/C(=O)O)ccc1O [Ferulic acid]	1.2 ± 0.2 AF units	67%	significant antisecretory activity	significantly higher	–
COc1cc(/C=C/C(=O)O)cc(OC)c1O [sinapic acid]	–	–	–	–	significant increase
